Tests used:
PAR-1 = target: T1, PAR-1 (Homo sapiens, UniProt P25116); assay: Inhibition of PAR-1 activation peptide (SFLLRN) calcium signaling in pretreated cells; format: cell-based; settings: cells pretreated with antagonist
T1 construct: endogenous in cells
T1 sequence (P25116 22-425): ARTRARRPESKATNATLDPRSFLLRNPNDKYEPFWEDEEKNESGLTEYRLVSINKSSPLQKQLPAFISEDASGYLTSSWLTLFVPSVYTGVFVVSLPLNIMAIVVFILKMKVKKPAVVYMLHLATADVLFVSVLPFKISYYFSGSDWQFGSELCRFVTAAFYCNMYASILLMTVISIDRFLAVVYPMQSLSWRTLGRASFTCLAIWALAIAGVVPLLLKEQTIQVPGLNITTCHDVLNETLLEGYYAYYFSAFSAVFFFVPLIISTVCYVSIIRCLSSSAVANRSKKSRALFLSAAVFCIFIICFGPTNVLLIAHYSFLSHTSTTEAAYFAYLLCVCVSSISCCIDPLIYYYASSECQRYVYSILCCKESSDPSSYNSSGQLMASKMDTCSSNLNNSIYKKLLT
Experimental: (§1) In order to assess the potential of peptides and molecules selected above to block PAR-2 signaling, cells were pretreated with potential antagonist peptides for a predetermined amount of time and were subsequently treated with various GPCR agonists. Confluent Lewis lung carcinoma (LLC) cells were loaded for 30-60 minutes with the fluorescent dye Fluo-4. Final concentration 4 uM Fluo-4, 0.02% pluronic acid in physiological buffer. Cells were then washed with assay buffer, (HBSS containing 1 mM CaCl2, 1 mM MgSO4, and 2.5 mM probenecid). Cells were stimulated with various doses of PAR-2 activating peptide, PAR-1 activating peptide or ATP. Fluorescence was monitored using a Wallac 1470 fluorescent plate reader. (See Al-ani et. al Journal of Pharmacology and Experimental Therapeutics 290:2, 753-760). Additional compound screening was performed using U87-MG human glioma cells. In this assay cells were labeled with FLIPR Calcium 3 dye (Component A), which was dissolved in 10 mls of Assay Buffer without Probenecid. Loading buffer was prepared by diluting Component A with an additional 90 mls of Assay Buffer without Probenecid, giving a total volume of a 100 ml. […] Calcium signaling was then measured using a Flexstation II (Molecular Devices) following manufacturer's instructions. […]

ATP signaling = assay: Inhibition of ATP calcium signaling in pretreated cells; format: cell-based; settings: cells pretreated with antagonist
Experimental: as §1

BALB/c mice, arthritis = assay: Anti-collagen II antibody/LPS arthritis in mice (hind feet thickness); format: in vivo, mouse; settings: 200 mg/kg/day intraperitoneally for 7 days
Experimental: (§2) On day 0, BALB/c mice were injected intravenously with the 1-2 mg 1B11 monoclonal anti-collagen II antibody. On day 1, animals were injected intraperitoneally with 20 μg LPS, and treatment with PAR-2 antagonists (200 mg/kg/day, intraperitoneally) for 7 days. After treatment was completed, disease is quantified by measuring the thickness (swelling) in both hind feet of the mouse. This was compared to untreated mice (p<0.05 vs. vehicle control).

PAR-2 [1] = assay: Inhibition of PAR-2 activating peptide (AP2) calcium signaling in cells pretreated with antagonist; format: cell-based, human; design: key to PAR-2 AP2 Signaling Treated/Control (T/C) / PAR-2 AP2 Signaling Treated/Control: AUC of calcium mobilization, treated ÷ control wells; settings: for PAR-2 antagonist activity in vitro (in words): pretreated cells, then P2AP
Summary of the method: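 LLC cells loaded with Fluo-4 (4 uM final), and U87-MG glioma cells loaded with FLIPR Calcium 3 dye with 2.5 mM probenecid, were pretreated with antagonist, then stimulated with PAR-2 activating peptide. Initial screening was at 1 mM. Calcium AUC of treated over control wells is reported as T/C.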

PAR-2 [2] = target: T2, PAR-2 (Mus musculus, UniProt P55086); assay: PAR-2 agonist peptide induced murine footpad edema model; format: in vivo; settings: co-treatment in footpad, C57BL6 mice, 1 hour
T2 construct: from tissue; host or cells: footpad of living C57BL6 mice
T2 sequence (P55086 26-399): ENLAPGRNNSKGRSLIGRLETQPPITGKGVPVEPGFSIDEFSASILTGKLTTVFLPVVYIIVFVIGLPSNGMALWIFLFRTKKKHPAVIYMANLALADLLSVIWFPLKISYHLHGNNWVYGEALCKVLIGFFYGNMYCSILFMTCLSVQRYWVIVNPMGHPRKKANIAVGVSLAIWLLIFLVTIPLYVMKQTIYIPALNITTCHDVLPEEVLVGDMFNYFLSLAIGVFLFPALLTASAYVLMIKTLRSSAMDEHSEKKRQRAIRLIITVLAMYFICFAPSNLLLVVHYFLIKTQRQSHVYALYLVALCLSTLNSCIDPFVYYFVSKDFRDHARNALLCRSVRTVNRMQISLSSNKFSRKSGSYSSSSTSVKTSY
Experimental: C57BL6 mice were injected with 5-25 μg of SLIGKV (ENMD-1003) (SEQ ID NO:52) into their footpad, in the presence or absence of increasing amounts of various PAR-2 antagonists. One hour later, footpad (tarsus) thickness was measured to quantify inflammation (edema).
The inventors next assessed whether the LIGK (ENMD-1005) (SEQ ID NO:1) peptide had in vivo PAR-2 antagonistic activity. This was studied using an edema model where vascular permeability was induced by the PAR-2 agonist peptide. In this model, the PAR-2 peptide induces severe edema as previously reported (FIG. 6). This vascular response was blocked by co-treatment with the PAR-2 antagonist LIGK (ENMD-1005) (SEQ ID NO:1) (FIG. 6). Thus, LIGK (ENMD-1005) (SEQ ID NO:1) functions in vivo to block PAR-2 signaling.

PAR-2 [3] = assay: PAR signalling activity: calcium mobilization (Fluo-4) in response to peptide; format: cell-based; settings: FIGS. 2A-2C
Experimental: Confluent HUVECs, Lewis lung carcinoma cells or U87-MG glioma cells or HT29 colon carcinoma cells were loaded for 30-60 minutes with the fluorescent dye Fluo-4. Final concentration 4 uM Fluo-4, 0.02% pluronic acid in physiological buffer. Cells were then washed with assay buffer, (HBSS containing 1 mM CaCl2, 1 mM MgSO4, and 2.5 mM probenecid). Cells were stimulated with various doses of PAR-2 activating peptide, PAR-1 activating peptide or ATP. Fluorescence was monitored using a Wallac 1470 fluorescent plate reader. (See Al-ani et. al Journal of Pharmacology and Experimental Therapeutics 290:2, 753-760)
Calcium mobilization curves of the PAR-2 agonist SLIGKV (ENMD-1003) (SEQ ID NO:52) compared with two truncated molecules LIGK (ENMD-1005) (SEQ ID NO:1) and LIGKV (ENMD-1007) (SEQ ID NO:2) are provided in FIG. 2A. […] Similar studies were performed on alanine substituted SLIGKV (ENMD-1003) (SEQ ID NO:52) peptides (FIGS. 2B and 2C).

[4] = system: angiogenesis in Matrigel plug, C57/BL6 mice; assay: In vivo Matrigel angiogenesis assay (FGF-2, hemoglobin content in the plug); design: species or system mouse; settings: subcutaneously daily for 6 days
[5] = system: BALB/c mice, LPS induced weight loss; assay: Arthrogen-CIA induced body weight loss in mice; format: in vivo, mouse; settings: 200 mg/kg/day intraperitoneally for 7 days
Experimental: as §2, with “i.v.” for “intravenously”, “mg/kg/day” for “mg/kg/day,”, “mice. This model results in significant weight loss associated with the administration of LPS.” for “mice (p<0.05 vs. vehicle control).”

Compound	Inhibitory effect on PAR-1 signaling (PAR-1)	Inhibitory effect on ATP signaling (ATP signaling)	Effect on inflammation / arthritis (BALB/c mice, arthritis)	PAR-2 AP2 Signaling Treated/Control (PAR-2 [1]; mimetic antagonists, AUC of calcium mobilization treated/control, initially screened at 1 mM compound)	PAR-2 antagonist activity in vitro (in words) (PAR-2 [1])	Effect on PAR-2 peptide induced edema (vascular response) (PAR-2 [2])	Calcium mobilization / PAR-2 signaling activity (in words) (PAR-2 [3])	Inhibition of angiogenesis (hemoglobin content in the plug) ([4]; highest dose)	Inhibition of angiogenesis (in words) [4]	Block of AP2 signaling (PAR-2 [1]; 1 mM LIGK against 100 uM SLIGKV (FIG. 3))	IC50 (PAR-2 [1]; AP2 stimulated HT29 cells (FIG. 4)) [µM]	Effect on LPS induced weight loss [5]
Br.CC(C)CC(=O)N1CCN(C(=O)CCCCCN)CC1 [ENMD-1068, 1-(4-(3-methylbutanoyl)piperazin-1-yl)-(6′-aminohexan-1-amide) hydrobromide]	no inhibitory effects	no inhibitory effects	inhibited inflammation	0.58	inhibitor of PAR-2 signaling in vitro							
LIGK [ENMD-1005]	no inhibitory effect	no inhibitory effect	inhibited inflammation		demonstrated antagonist activity	blocked	Neither truncated molecule was able to induce calcium mobilization	more than 80%	dose dependent inhibition of angiogenesis	completely blocked	< 500	abrogated this LPS induced weight loss
